Legend:
[1] = system: HNECs; experiment: Membrane fluidity of HNECs by FRAP; assay type: cell-based, human; settings: Ge 50 µg·mL^−1 alone (control), 3 h
Description: The cells were seeded on cell plate at a density of 5×10^4 cells·cm^−2. The above formulation groups were added and the plates were incubated for 3 h at 37 °C in a 5% CO2 incubator. Cells were rinsed with HBSS and stained with NBD-C6-HPC at 2 µg·mL^−1 for 30 min.
A method of fluorescence recovery after photobleaching (FRAP) was used here. After the definition of line scanning position, length and photobleaching position, the monolayer was visualized by a Confocal Laser Scanning Microscope under the following conditions: excitation wavelength of 488 nm, emission wavelength of 530 nm, laser power for fluorescence bleaching of 100%, bleaching time of 0.7 s, scanning frequency of 1.65 s and the total scanning time of 100 s. The fluorescence intensity time-variation at the photobleaching position was recorded and image formation was obtained by confocal tomoscanning.
The membrane fluidity was represented by fluorescence recovery rate (R) which was calculated with the following equation (4): [drawing 4] where F0 is the instant fluorescence value after photobleaching, F1 is the fluorescence value before photobleaching and F2 is the fluorescence recovery value after photobleaching.

[2] = cited from earlier work
[3] = Transport of geniposide across the HNEC monolayer; assay type: in vitro ADME, human; settings: human
Description: When HNECs reached approximately 80–90% confluence, the cells were detached with trypsin and were seeded at a density of 2×10^5 cells·cm^−2 on PET inserts. The culture medium was BEGM:DMEM/F12 (1∶1) in both sides at 37 °C in an atmosphere of 5% CO2 and 95% relative humidity, which was first changed after 24 h of seeding and then every 2 days.
(§1) The transport experiments were carried out when transepithelial electrical resistance (TEER) value was higher than 500 Ω·cm^2. The transport studies were performed by initially incubating the monolayers in Hanks balanced salt solution (HBSS) for 30 min at 37 °C. To measure apical (A) → basolateral (B) transport, 0.5 mL of drug solution and 1.5 mL of HBSS were added in the A and B sides, respectively. Basolateral (B) → apical (A) transport was evaluated by adding 1.5 mL of drug solution in B side and 0.5 mL of HBSS in A side.
Geniposide transport was studied at three concentrations: 25, 50 and 100 µg·mL^−1. The effect of borneol was studied at 27.8, 55.6 and 111.2 µg·mL^−1 concentrations in the presence of 50 µg·mL^−1 geniposide. The effect of muscone was studied at 4.17, 8.34 and 16.68 µg·mL^−1 concentrations in the presence of 50 µg·mL^−1 geniposide. Finally, the effects of both borneol and muscone were studied at the concentrations mentioned above in the presence of 50 µg·mL^−1 geniposide.
Each measurement was evaluated in triplicate. Cells were incubated in a 37 °C shaking incubator. Samples of 200 µL were taken from the apical side (to study B → A transport) and samples of 600 µL were taken from the basal side (to study A → B transport) at 30, 60, 90, 120, 150, 180 min time intervals. The same volume of fresh preheated HBSS was added to keep the volume constant. Samples were centrifuged for 10 min at 12,000 r·min^−1 and the supernatant was analyzed for geniposide by HPLC.
An UV-HPLC method was used to quantify the geniposide concentrations in the transport studies. The chromatographic conditions consisted of a Purospher Star C18 column (4×200 mm, particle size 5 µm) plus guard column. Geniposide samples were analyzed with UV detection (λ = 238 nm) and the mobile phase was composed of acetonitrile and water (16∶84, v/v). The mobile phase was pumped at a flow rate of 1 mL·min^−1 and the injected volume was 20 µL. In these conditions, the retention time of geniposide was 8.5 min.
(§2) The apparent permeability coefficients (Papp) for geniposide were calculated according to the following equation (2): [drawing 2] where Papp is the permeability, dQ/dt is the apparent appearance rate of drug in the receiver side calculated using linear regression of amounts in the receiver chamber versus time, C is the drug concentration in the donor chamber and S is the surface area of the monolayer. The efflux ratio (ER) was calculated according to the following equation (3): [drawing 3]

[4] = system: HNECs; experiment: MTT cytotoxicity assay on HNECs; assay type: cell-based, human; settings: 24 h
Description: The cytotoxicity of the main active ingredients in “Xing Nao Jing” on HNECs was evaluated by the methyl thiazolyl tetrazolium (MTT) colorimetric assay. Briefly, 100 µL of 5×10^4 cells·mL^−1 was seeded into 96-well plates. After 24 h, the medium was removed and replaced with a fresh medium containing increasing concentrations of geniposide, borneol, muscone and their combinations for another 24 h. After that, 15 µL of a 5 mg·mL^−1 MTT solution in 100 µL BEGM was added to each well. After 4 h of incubation, the supernatant was discarded and formazan crystals were dissolved in DMSO followed by vigorous mixing. Control wells were incubated with BEGM only and were treated similarly as above. The optical density was determined at 490 nm with a Multiskan Go microplate reader (Thermo, USA). The percent viability of the cells was determined from the absorbance values considering that of the control as 100%.
The percentage of cell toxicity in the MTT assay was calculated by the following equation (1): [drawing 1]

[5] = rats, at 3 h; cited from earlier work
[6] = system: P-gp; experiment: P-gp substrate assessment from bidirectional transport in HNEC monolayer; assay type: in vitro ADME, human; settings: HNEC model
Description: as §1, §2

[7] = Ge 50 µg·mL^−1 +Bo 27.8 µg·mL^−1
[8] = Ge 50 µg·mL^−1 +Bo 27.8 µg·mL^−1 Mu 4.17 µg·mL^−1
[9] = Ge 50 µg·mL^−1 +Bo 55.6 µg·mL^−1
[10] = Ge 50 µg·mL^−1 +Bo 55.6 µg·mL^−1 Mu 8.34 µg·mL^−1
[11] = Ge 50 µg·mL^−1 +Bo 111.2 µg·mL^−1
[12] = Ge 50 µg·mL^−1 +Bo 111.2 µg·mL^−1 Mu 16.68 µg·mL^−1
[13] = Ge 50 µg·mL^−1 +Mu 4.17 µg·mL^−1
[14] = Ge 50 µg·mL^−1 +Mu 8.34 µg·mL^−1
[15] = Ge 50 µg·mL^−1 +Mu 16.68 µg·mL^−1
[16] = geniposide 50 µg·mL^−1 alone (control)

COC(=O)C1=CO[C@@H](O[C@@H]2O[C@H](CO)[C@@H](O)[C@H](O)[C@H]2O)[C@@H]2C(CO)=CC[C@H]12 [geniposide, Geniposide]
Fluorescence recovery rate R (%)±SD [1]: 33.08±1.74%
apparent partition coefficient between octanol and water [2]: about 0.108
Papp A→B at 180 min, 50 µg·mL^−1 [3, 7]: 1.17 ± 0.12 ×10⁻⁶ cm/s
Papp B→A at 180 min, 50 µg·mL^−1 [3, 7]: 1.61 ± 0.034 ×10⁻⁶ cm/s
Papp A→B at 180 min, 50 µg·mL^−1 [3, 8]: 1.43 ± 0.083 ×10⁻⁶ cm/s
Papp B→A at 180 min, 50 µg·mL^−1 [3, 8]: 1.81 ± 0.024 ×10⁻⁶ cm/s
Papp A→B at 180 min, 50 µg·mL^−1 [3, 9]: 1.35 ± 0.086 ×10⁻⁶ cm/s
Papp B→A at 180 min, 50 µg·mL^−1 [3, 9]: 1.92 ± 0.111 ×10⁻⁶ cm/s
Papp A→B at 180 min, 50 µg·mL^−1 [3, 10]: 1.75 ± 0.043 ×10⁻⁶ cm/s
Papp B→A at 180 min, 50 µg·mL^−1 [3, 10]: 1.916 ± 0.019 ×10⁻⁶ cm/s
Papp A→B at 180 min, 50 µg·mL^−1 [3, 11]: 1.99 ± 0.293 ×10⁻⁶ cm/s
Papp B→A at 180 min, 50 µg·mL^−1 [3, 11]: 1.99 ± 0.126 ×10⁻⁶ cm/s
Papp A→B at 180 min, 50 µg·mL^−1 [3, 12]: 1.92 ± 0.049 ×10⁻⁶ cm/s
Papp B→A at 180 min, 50 µg·mL^−1 [3, 12]: 2.39 ± 0.052 ×10⁻⁶ cm/s
Papp A→B at 180 min, 50 µg·mL^−1 [3, 13]: 1.15 ± 0.068 ×10⁻⁶ cm/s
Papp B→A at 180 min, 50 µg·mL^−1 [3, 13]: 1.6 ± 0.021 ×10⁻⁶ cm/s
Papp A→B at 180 min, 50 µg·mL^−1 [3, 14]: 1.61 ± 0.054 ×10⁻⁶ cm/s
Papp B→A at 180 min, 50 µg·mL^−1 [3, 14]: 2.039 ± 0.018 ×10⁻⁶ cm/s
Papp A→B at 180 min, 50 µg·mL^−1 [3, 15]: 1.97 ± 0.108 ×10⁻⁶ cm/s
Papp B→A at 180 min, 50 µg·mL^−1 [3, 15]: 2.104 ± 0.02 ×10⁻⁶ cm/s
Papp A→B at 180 min, 25 µg·mL^−1 ([3]; geniposide 25 µg·mL^−1): 1.27 ± 0.314 ×10⁻⁶ cm/s
Papp B→A at 180 min, 25 µg·mL^−1 ([3]; geniposide 25 µg·mL^−1): 1.35 ± 0.113 ×10⁻⁶ cm/s
efflux ratio at 180 min, 25 µg·mL^−1 ([3]; geniposide 25 µg·mL^−1, read-out: ER±SD(B→A/A→B)): 1.1 ± 0.256
Papp A→B at 180 min, 50 µg·mL^−1 [3, 16]: 1.22 ± 0.015 ×10⁻⁶ cm/s
Papp B→A at 180 min, 50 µg·mL^−1 [3, 16]: 1.26 ± 0.084 ×10⁻⁶ cm/s
efflux ratio at 180 min, 50 µg·mL^−1 ([3]; geniposide 50 µg·mL^−1 alone (control), read-out: ER±SD(B→A/A→B)): 1.03 ± 0.076
Papp A→B at 180 min, 100 µg·mL^−1 ([3]; geniposide 100 µg·mL^−1): 1.25 ± 0.074 ×10⁻⁶ cm/s
Papp B→A at 180 min, 100 µg·mL^−1 ([3]; geniposide 100 µg·mL^−1): 1.19 ± 0.104 ×10⁻⁶ cm/s
efflux ratio at 180 min, 100 µg·mL^−1 ([3]; geniposide 100 µg·mL^−1, read-out: ER±SD(B→A/A→B)): 0.951 ± 0.132
Papp at 180 min ([3]; HNEC monolayer, geniposide 25-100 µg·mL^−1, read-out: permeability coefficients): 1.22 to 1.27 ×10⁻⁶ cm/s
concentration range with no cell cytotoxicity [4]: 0 to 400000 ng/mL
absorption percentage in the intestinal tract [5]: about 15.9%
P-gp substrate [6]: not a P-gp substrate

Source: PMC4081582, “Enhancing Effect of Borneol and Muscone on Geniposide Transport across the Human Nasal Epithelial Cell Monolayer” (PLoS ONE, 2014)
